Results on 16 compounds are retold here after patent US20260217688A1, “INHIBITORS OF JAK2” (Llydaw Therapeutics, Inc., priority 2022, published 2026).

As usually defined, the EC50 is the concentration that produces a half-maximal response. A lower EC50 goes with a more potent agent.

The target of one data set is T1, JAK2 JH2 (Homo sapiens, UniProt O60674).
T1 construct: Enzyme: JAK2 JH2, His-Avi-Tag, Biotin-Labeled (BPS Bioscience, Cat #79074) 1 nM; His; purchased BPS Bioscience 79074
The data set can be described thus: JAK2 JH2 TR-FRET Assay. Type of data set: binding. As to conditions: JAK2 JH2 1 nM, Tracer ZE84-0003 10 nM. The method, then:
Assay Buffer 1×: • 20 mM HEPES pH 7.2-7.4; • 10 mM MgCl2; • 0.015% Brij-35; • 2 mM DTT; • 0.05 mg/ml BSA.
Final assay concentrations: • DMSO: 0.25%; • Streptavidin Tb-cryptate (Cisbio, Cat #610SATLB) 0.2 nM; • Enzyme: JAK2 JH2, His-Avi-Tag, Biotin-Labeled (BPS Bioscience, Cat #79074) 1 nM; • Probe: Tracer ZE84-0003 (ChemRar) 10 nM.
Materials: • Reaction plate: ProxiPlate-384 Plus White Plate (PerkinElmer); • Dilution plate: Diamond Well Plate (Axygen, Cat #P-384-120 SQ-C-S); • Compounds plate: Diamond Well Plate (Axygen, Cat #P-384-120 SQ-C-S).
Assay protocol: • 1. Prepare 400× solutions of compounds in DMSO into Compounds plate; • 2. Prepare Dilution plate: add 39 μL of 1× Assay buffer per well of Dilution plate; • 3. Prepare 2×Tb-cryptate mix in 1× Assay buffer. Add 10 μL of 2×Tb-cryptate mix to K-(Tb-cryptate and Probe without Enzyme) wells and blank (Tb-cryptate without Probe and Enzyme) wells; • 4. Add JAK2 JH2 into the rest of 2×Tb-cryptate mix to make 2×JAK2 JH2+Tb-cryptate mix. Add 10 μL per well into Reaction plate; • 5. Centrifuge plate at 200 g for 1 min; • 6. Dilute 1 μL of 400× compounds in 39 μL 1× Assay buffer in Dilution plate; • 7. Add 2 μL of 10× compounds from Dilution plate to Reaction plate with 10 μL of JAK2 JH2+Tb-cryptate mix; • 8. Centrifuge plate at 200 g for 1 min; • 9. Pre-incubate Reaction plate with compounds 15 min; • 10. Prepare 2.5× Tracer mix; • 11. Add 8 μL of 2.5× Tracer mix into appropriate wells of Reaction plate; • 12. Centrifuge plate at 800 g for 3 min; • 13. Incubate at rt for 15 min; • 14. Measure Fluorescence using Microplate Reader (Ex: TR, Em1/Em2: 482/520). The results of this assay are shown in the Table B. The values of EC50 shown as a letters A-D, where: A≤0.01 μM; 0.01 μM<B≤0.05 μM; 0.05 μM<C≤0.1 μM; D>0.1.
For orientation: Time-resolved FRET reads energy transfer from a long-lived donor to a nearby acceptor.

A short description of data set [1]: Proliferation inhibition assay (CellTiter-Glo), Ba/F3 JAK2 wt. Type of data set: cell-based. As to conditions: mouse, Ba/F3 (JAK2 wt) cells. As to the method:
(§1) Ba/F3 (JAK2 wt) (ABM, T3076) cells and Ba/F3 (JAK2 V617F) (WuXi AppTec) cells were grown in RPMI-1640 (Gibco, cat. number 21870) supplemented with 10% FBS (Hyclone Laboratories Inc, Cat #SV30160.03), 1× Antibiotic-antimycotic (Gibco, Cat #15240-062), 2× Sodium pyruvate (Paneco, cat #F023), 2× Essential amino acids (Paneco, cat #F115/100), 1× Non-Essential amino acids (Paneco, cat #F116) at 37° C. in 5% CO2 atmosphere.
(§2) For the proliferation inhibition assay Ba/F3 (JAK2 wt) and Ba/F3 (JAK2 V617F) cells were seeded into a CellBIND® 384-well Flat Clear Bottom Black Polystyrene Microplates (Corning, USA, Cat #3770) at a density of 4000 cells per well in complete culture medium with or without 10 ng/ml rmIL-3 (RD systems, USA, Cat #403-ML-025) using Biomek FX/NX (384) liquid handler, 45 μl of cell suspension in complete culture medium per well. 500× compound's stocks in DMSO (Sigma Cat #D2650) were prepared in compounds plate (Diamond Well Plate, Axigen, Cat #P-384-120 SQ-C-S) applying Biomek 2000. 1 μl of 500× compounds stock was added to 49 μl of complete culture medium into Dilution plate (Diamond Well Plate, Axigen, Cat #P-384-120 SQ-C-S), mixed and then 5 μl of 10× compounds solution was transferred to cells using Biomek FX/NX (384) liquid handler. The centrifugation at 100 g for 1 min at Eppendorf 5810 followed. Final DMSO concentration in assay was 0.2%. All treatments were performed in technical and biological duplicates. Treated cells were incubated for 72 h at 37° C. with 5% CO2.
(§3) After 3 days of incubation, CellTiter-Glo Luminescent Cell Viability Assay (Promega) was performed. 10 μl of CellTiter-Glo (Promega, CAT #G7572) was added to the cells using Biomek FX/NX (384) liquid handler. The assay plate was centrifuged at 100 g for 1 min and luminescence signal was measured using Microplate Reader (CLARIOStar).

Data set [2] can be described thus: Proliferation inhibition assay (CellTiter-Glo), Ba/F3 JAK2 V617F. Type of data set: cell-based. The settings on record: mouse, Ba/F3 (JAK2 V617F) cells; with 10 ng/ml rmIL-3, 72 h; read-out: Ba/F3 JAK2 V617F + IL3, CC50 3 days. As to the method: as §1, §2, §3
On the technique in general: Cellular ATP, detected with luciferase, serves as a proxy for viable cell number.

In a further data set the test system is Ba/F3 (JAK2 V617F) cells. The data set is described as above. In kind it is cell-based. As to conditions: Mus musculus, BaF3; without IL3, 72 h; read-out: Ba/F3 JAK2 V617F, CC50 3 days. The method, then: as §1, §2, §3
[3] abbreviates: with 10 ng/ml rmIL-3, 72 h, read-out: Ba/F3 JAK2 wt + IL3, CC50 3 days.

T1 sequence (O60674 545-809 limits assumed): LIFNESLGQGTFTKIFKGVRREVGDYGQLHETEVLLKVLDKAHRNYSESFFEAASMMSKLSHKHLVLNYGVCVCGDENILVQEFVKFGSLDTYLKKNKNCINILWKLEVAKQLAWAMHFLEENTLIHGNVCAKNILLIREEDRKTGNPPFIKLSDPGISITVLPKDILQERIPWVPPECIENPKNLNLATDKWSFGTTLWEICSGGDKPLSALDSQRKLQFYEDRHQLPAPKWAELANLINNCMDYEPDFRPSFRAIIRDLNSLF

Take `COc1c(Nc2nc(Nc3cnn(C4CCCCC4)c3)ncc2C(N)=O)cccc1-c1ncn(C)n1` [Compound 11, 2-[(1-cyclohexylpyrazol-4-yl)amino]-4-[2-methoxy-3-(1-methyl-1,2,4-triazol-3-yl)anilino]pyrimidine-5-carboxamide]: at JAK2 JH2, the EC50 is no more than 10 nM. Besides, the CC50 at 72 h in data set [1] (setting [3]) was 1000 to 5000 nM; in data set [1] (without IL3, 72 h, read-out: Ba/F3 JAK2 wt, CC50 3 days), 1000 to 5000 nM; in data set [2], no more than 500 nM. For the same compound, the CC50 in the data set on Ba/F3 (JAK2 V617F) cells is no more than 500 nM.
At JAK2 JH2, `COc1c(Nc2nc(Nc3cnn(C4CCN(C(C)C)CC4)c3)ncc2C(N)=O)cccc1-c1nc2ccccc2o1` [Compound 33, 4-[3-(1,3-benzoxazol-2-yl)-2-methoxy-anilino]-2-[[1-(1-isopropyl-4-piperidyl)pyrazol-4-yl]amino]pyrimidine-5-carboxamide] had an EC50 of 10 to 50 nM. Besides, the CC50 at 72 h in data set [1] (setting [3]) was 1000 to 5000 nM. The CC50 with Ba/F3 (JAK2 V617F) cells is no more than 500 nM.
`COc1c(Nc2nc(Nc3cnn(CC(C)C)c3)ncc2C(N)=O)cccc1-c1nc2ccccc2o1` [Compound 56, 4-[3-(1,3-benzoxazol-2-yl)-2-methoxy-anilino]-2-[(1-isobutylpyrazol-4-yl)amino]pyrimidine-5-carboxamide] came in with a 50% effective concentration (EC50) on JAK2 JH2 greater than 100 nM. Further, the CC50 at 72 h in data set [1] (setting [3]) lay in the range of 5000 to 10000 nM. The CC50 in the data set on Ba/F3 (JAK2 V617F) cells was 500 to 1000 nM.
The corresponding values for `COc1c(Nc2nc(Nc3cnn(C4CCOCC4)c3)ncc2C(N)=O)cccc1-c1nc2ccccc2o1` [Compound 44, 4-[3-(1,3-benzoxazol-2-yl)-2-methoxy-anilino]-2-[(1-tetrahydropyran-4-ylpyrazol-4-yl)amino]pyrimidine-5-carboxamide] are 10 to 50 nM, 1000 to 5000 nM and no more than 500 nM.
The corresponding values for `COc1c(Nc2nc(Nc3cnn(C4CCCCC4)c3)ncc2C(N)=O)cccc1-c1nc2ccccc2o1` [Compound 45, 4-[3-(1,3-benzoxazol-2-yl)-2-methoxy-anilino]-2-[(1-cyclohexylpyrazol-4-yl)amino]pyrimidine-5-carboxamide] are greater than 100 nM, 5000 to 10000 nM and 500 to 1000 nM.
The corresponding values for `COc1c(Nc2nc(Nc3cnn(C)c3)ncc2C(N)=O)cccc1-c1cccnc1` [Compound 36, 4-[2-methoxy-3-(3-pyridyl)anilino]-2-[(1-methylpyrazol-4-yl)amino]pyrimidine-5-carboxamide] are 10 to 50 nM, greater than 10000 nM and greater than 10000 nM.
With `COCCn1cc(Nc2ncc(C(N)=O)c(Nc3cccc(-c4ncn(C)n4)c3OC)n2)cn1` [Compound 51], the EC50 on JAK2 JH2 lay within 10 to 50 nM. In addition, the CC50 at 72 h in data set [1] (setting [3]) was greater than 10000 nM. The CC50 in the data set with Ba/F3 (JAK2 V617F) cells was 1000 to 5000 nM.
The corresponding values for `COc1c(Nc2nc(Nc3cnn(C4CCN(C(C)C)CC4)c3)ncc2C(N)=O)cccc1-c1ncn(C)n1` [Compound 35, 2-[[1-(1-isopropyl-4-piperidyl)pyrazol-4-yl]amino]-4-[2-methoxy-3-(1-methyl-1,2,4-triazol-3-yl)anilino]pyrimidine-5-carboxamide] are 10 to 50 nM, greater than 10000 nM and 1000 to 5000 nM.
The compound `COc1c(Nc2nc(Nc3cnn(C(C)C)c3)ncc2C(N)=O)cccc1-c1ccccn1` [Compound 38, 2-[(1-isopropylpyrazol-4-yl)amino]-4-[2-methoxy-3-(2-pyridyl)anilino]pyrimidine-5-carboxamide] gave an EC50 at JAK2 JH2 of 10 to 50 nM. The CC50 at 72 h in data set [1] (setting [3]) lay within 5000 to 10000 nM. Further, the CC50 in the data set on Ba/F3 (JAK2 V617F) cells was no more than 500 nM.
Take `COc1c(Nc2nc(Nc3cnn(CC(F)(F)F)c3)ncc2C(N)=O)cccc1-c1nc2ccccc2o1` [Compound 57, 4-[3-(1,3-benzoxazol-2-yl)-2-methoxy-anilino]-2-[[1-(2,2,2-trifluoroethyl)pyrazol-4-yl]amino]pyrimidine-5-carboxamide]: the EC50 at JAK2 JH2 is greater than 100 nM. Also, the CC50 at 72 h in data set [1] (setting [3]) was greater than 10000 nM. Besides, in the data set with Ba/F3 (JAK2 V617F) cells, the CC50 is greater than 10000 nM.
`COc1c(Nc2nc(Nc3cnn(CCCN(C)C)c3)ncc2C(N)=O)cccc1-c1nc2ccccc2o1` [Compound 46, 4-[3-(1,3-benzoxazol-2-yl)-2-methoxy-anilino]-2-[[1-[3-(dimethylamino)propyl]pyrazol-4-yl]amino]pyrimidine-5-carboxamide]: on JAK2 JH2, the EC50 lay in the range of 50 to 100 nM. In addition, in data set [1] (setting [3]), the CC50 at 72 h is 1000 to 5000 nM. For the same compound, in the data set with Ba/F3 (JAK2 V617F) cells, the CC50 was no more than 500 nM.
The matching figures for `COc1c(Nc2nc(Nc3cnn(C4CCN(C(C)C)CC4)c3)ncc2C(N)=O)cccc1-c1ccccn1` [Compound 48, 2-[[1-(1-isopropyl-4-piperidyl)pyrazol-4-yl]amino]-4-[2-methoxy-3-(2-pyridyl)anilino]pyrimidine-5-carboxamide]: 50 to 100 nM, 1000 to 5000 nM and no more than 500 nM.
The corresponding values for `COc1c(Nc2nc(Nc3cnn(C4CCCCC4)c3)ncc2C(N)=O)cccc1-c1ccccn1` [Compound 39, 2-[(1-cyclohexylpyrazol-4-yl)amino]-4-[2-methoxy-3-(2-pyridyl)anilino]pyrimidine-5-carboxamide] are 50 to 100 nM, 5000 to 10000 nM and no more than 500 nM.
The corresponding values for `COc1c(Nc2nc(Nc3cnn(C)c3)ncc2C(N)=O)cccc1-c1ccncc1` [Compound 37, 4-[2-methoxy-3-(4-pyridyl)anilino]-2-[(1-methylpyrazol-4-yl)amino]pyrimidine-5-carboxamide] are 10 to 50 nM, 5000 to 10000 nM and 5000 to 10000 nM.
On JAK2 JH2, `COc1c(Nc2nc(Nc3cnn(C45CC6CC(CC(C6)C4)C5)c3)ncc2C(N)=O)cccc1-c1ccccn1` [Compound 41, 2-[[1-(1-adamantyl)pyrazol-4-yl]amino]-4-[2-methoxy-3-(2-pyridyl)anilino]pyrimidine-5-carboxamide] came in with an EC50 greater than 100 nM. Moreover, the CC50 at 72 h in data set [1] (setting [3]) was 5000 to 10000 nM. The CC50 in the data set on Ba/F3 (JAK2 V617F) cells was 1000 to 5000 nM.
The matching figures for `COCCCn1cc(Nc2ncc(C(N)=O)c(Nc3cccc(-c4ncn(CCCOC)n4)c3OC)n2)cn1` [Compound 53]: 10 to 50 nM, greater than 10000 nM and 1000 to 5000 nM.
